Results: ChEMBL document CHEMBL3885861, “Open TG-GATES”

Organism: Rattus norvegicus
Assay: Open TG-GATES - Regimen: Daily Repeat
Type: toxicity, organism-based, Sprague-Dawley
Set-up: regimen Daily Repeat, gender Male, age 6 weeks
Conditions: in vivo, po, 75 mg/kg, route gavage, dose level Low; for APTT / Bas / Eos / Fbg / Hb / Ht / Lym / MCH / MCHC / MCV / Mono / Neu / PT / Plat / RBC / Ret / WBC: tissue Blood; for KIDNEY_L / KIDNEY_R / KIDNEY_TOTAL: tissue Kidney; for LIVER: tissue Liver; for A/G / ALP / ALT / AST / BUN / CRE / Ca / Cl / DBIL / GLC / IP / K / LDH / Na / PL / RALB / TBIL / TC / TG / TP / gamma-GTP: tissue Plasma

CN(C/C=C/C#CC(C)(C)C)Cc1cccc2ccccc12 [TERBINAFINE]
TERMINAL_BW (72 h, time 3 day): 243.4 g
APTT (72 h, time 3 day): 18.6 s
Bas (72 h, time 3 day): 0.8%
Eos (72 h, time 3 day): 0.8%
Fbg (72 h, time 3 day): 233.4 mg/dL
Hb (72 h, time 3 day): 13.4 g/dL
Ht (72 h, time 3 day): 39.5%
Lym (72 h, time 3 day): 80.4%
MCH (72 h, time 3 day): 21.7 pg
MCHC (72 h, time 3 day): 33.7%
MCV (72 h, time 3 day): 64.3 fL
Mono (72 h, time 3 day): 2.8%
Neu (72 h, time 3 day): 15.4%
PT (72 h, time 3 day): 11.5 s
Plat (72 h, time 3 day): 121.6 x10_4/uL
RBC (72 h, time 3 day): 615.4 x10_4/ul
Ret (72 h, time 3 day): 6.2%
WBC (72 h, time 3 day): 111.7 x10_2/uL
KIDNEY_L (72 h, time 3 day): 1.1 g
KIDNEY_R (72 h, time 3 day): 1.1 g
KIDNEY_TOTAL (72 h, time 3 day): 2.1 g
LIVER (72 h, time 3 day): 12.1 g
A/G (72 h, time 3 day): 1.7
ALP (72 h, time 3 day): 854 IU/L
ALT (72 h, time 3 day): 35.2 IU/L
AST (72 h, time 3 day): 67.2 IU/L
BUN (72 h, time 3 day): 14.2 mg/dL
CRE (72 h, time 3 day): 0.4 mg/dL
Ca (72 h, time 3 day): 10.8 mg/dL
Cl (72 h, time 3 day): 103.6 meq/L
DBIL (72 h, time 3 day): 0.1 mg/dL
GLC (72 h, time 3 day): 190.8 mg/dL
IP (72 h, time 3 day): 7.3 mg/dL
K (72 h, time 3 day): 4.2 meq/L
LDH (72 h, time 3 day): 214.6 IU/L
Na (72 h, time 3 day): 141.2 meq/L
PL (72 h, time 3 day): 156 mg/dL
RALB (72 h, time 3 day): 3.6 g/dL
TBIL (72 h, time 3 day): 0.2 mg/dL
TC (72 h, time 3 day): 80.6 mg/dL
TG (72 h, time 3 day): 113.4 mg/dL
TP (72 h, time 3 day): 5.7 g/dL
gamma-GTP (72 h, time 3 day): 2 IU/L
TERMINAL_BW ([…], time 7 day): 274.5 g
TERMINAL_BW ([…], time 14 day): 333.7 g
TERMINAL_BW ([…], time 28 day): 399 g
APTT ([…], time 7 day): 19.2 s
Bas ([…], time 7 day): 1%
Eos ([…], time 7 day): 0.6%
Fbg ([…], time 7 day): 226 mg/dL
Hb ([…], time 7 day): 13.9 g/dL
Ht ([…], time 7 day): 40.6%
Lym ([…], time 7 day): 83%
MCH ([…], time 7 day): 21.7 pg
MCHC ([…], time 7 day): 34.3%
MCV ([…], time 7 day): 63.5 fL
Mono ([…], time 7 day): 2.4%
Neu ([…], time 7 day): 13.2%
PT ([…], time 7 day): 11.9 s
Plat ([…], time 7 day): 130.9 x10_4/uL
RBC ([…], time 7 day): 640.8 x10_4/ul
Ret ([…], time 7 day): 5.2%
WBC ([…], time 7 day): 112.5 x10_2/uL
APTT ([…], time 14 day): 20.1 s
Bas ([…], time 14 day): 1%
Eos ([…], time 14 day): 1%
Fbg ([…], time 14 day): 219.4 mg/dL
Hb ([…], time 14 day): 14.6 g/dL
Ht ([…], time 14 day): 42.7%
Lym ([…], time 14 day): 79.8%
MCH ([…], time 14 day): 20.6 pg
MCHC ([…], time 14 day): 34%
MCV ([…], time 14 day): 60.4 fL
Mono ([…], time 14 day): 2.6%
Neu ([…], time 14 day): 15.4%
PT ([…], time 14 day): 11.3 s
Plat ([…], time 14 day): 129 x10_4/uL
RBC ([…], time 14 day): 707.4 x10_4/ul
Ret ([…], time 14 day): 4%
WBC ([…], time 14 day): 118.9 x10_2/uL
APTT ([…], time 28 day): 21.8 s
Bas ([…], time 28 day): 0.8%
Eos ([…], time 28 day): 1%
Fbg ([…], time 28 day): 210.8 mg/dL
Hb ([…], time 28 day): 15 g/dL
Ht ([…], time 28 day): 42.9%
Lym ([…], time 28 day): 80.6%
MCH ([…], time 28 day): 19.7 pg
MCHC ([…], time 28 day): 34.8%
MCV ([…], time 28 day): 56.7 fL
Mono ([…], time 28 day): 2.2%
Neu ([…], time 28 day): 15%
PT ([…], time 28 day): 12.2 s
Plat ([…], time 28 day): 114.8 x10_4/uL
RBC ([…], time 28 day): 758.2 x10_4/ul
Ret ([…], time 28 day): 2.7%
WBC ([…], time 28 day): 135.9 x10_2/uL
KIDNEY_L ([…], time 7 day): 1.2 g
KIDNEY_R ([…], time 7 day): 1.2 g
KIDNEY_TOTAL ([…], time 7 day): 2.4 g
KIDNEY_L ([…], time 14 day): 1.3 g
KIDNEY_R ([…], time 14 day): 1.3 g
KIDNEY_TOTAL ([…], time 14 day): 2.5 g
KIDNEY_L ([…], time 28 day): 1.5 g
KIDNEY_R ([…], time 28 day): 1.6 g
KIDNEY_TOTAL ([…], time 28 day): 3.1 g
LIVER ([…], time 7 day): 13.1 g
LIVER ([…], time 14 day): 15.1 g
LIVER ([…], time 28 day): 17.5 g
A/G ([…], time 7 day): 1.6
ALP ([…], time 7 day): 944.6 IU/L
ALT ([…], time 7 day): 36.6 IU/L
AST ([…], time 7 day): 72.8 IU/L
BUN ([…], time 7 day): 16.2 mg/dL
CRE ([…], time 7 day): 0.4 mg/dL
Ca ([…], time 7 day): 10.6 mg/dL
Cl ([…], time 7 day): 103.8 meq/L
DBIL ([…], time 7 day): 0.1 mg/dL
GLC ([…], time 7 day): 188.2 mg/dL
IP ([…], time 7 day): 7.1 mg/dL
K ([…], time 7 day): 4.4 meq/L
LDH ([…], time 7 day): 217.6 IU/L
Na ([…], time 7 day): 142 meq/L
PL ([…], time 7 day): 152.8 mg/dL
RALB ([…], time 7 day): 3.6 g/dL
TBIL ([…], time 7 day): 0.2 mg/dL
TC ([…], time 7 day): 76.2 mg/dL
TG ([…], time 7 day): 112.8 mg/dL
TP ([…], time 7 day): 5.8 g/dL
gamma-GTP ([…], time 7 day): 1 IU/L
A/G ([…], time 14 day): 1.5
ALP ([…], time 14 day): 875.8 IU/L
ALT ([…], time 14 day): 36.8 IU/L
AST ([…], time 14 day): 71.4 IU/L
BUN ([…], time 14 day): 17.6 mg/dL
CRE ([…], time 14 day): 0.4 mg/dL
Ca ([…], time 14 day): 10.8 mg/dL
Cl ([…], time 14 day): 103.8 meq/L
DBIL ([…], time 14 day): 0.1 mg/dL
GLC ([…], time 14 day): 206.6 mg/dL
IP ([…], time 14 day): 7.2 mg/dL
K ([…], time 14 day): 3.8 meq/L
LDH ([…], time 14 day): 168.2 IU/L
Na ([…], time 14 day): 142.4 meq/L
PL ([…], time 14 day): 140.4 mg/dL
RALB ([…], time 14 day): 3.5 g/dL
TBIL ([…], time 14 day): 0.2 mg/dL
TC ([…], time 14 day): 65.4 mg/dL
TG ([…], time 14 day): 123 mg/dL
TP ([…], time 14 day): 5.9 g/dL
gamma-GTP ([…], time 14 day): 0.8 IU/L
A/G ([…], time 28 day): 1.3
ALP ([…], time 28 day): 602 IU/L
ALT ([…], time 28 day): 41.4 IU/L
AST ([…], time 28 day): 76.2 IU/L
BUN ([…], time 28 day): 17.2 mg/dL
CRE ([…], time 28 day): 0.5 mg/dL
Ca ([…], time 28 day): 10.3 mg/dL
Cl ([…], time 28 day): 104.4 meq/L
DBIL ([…], time 28 day): 0.086 mg/dL
GLC ([…], time 28 day): 223.4 mg/dL
IP ([…], time 28 day): 7.2 mg/dL
K ([…], time 28 day): 4.1 meq/L
LDH ([…], time 28 day): 230.6 IU/L
Na ([…], time 28 day): 141 meq/L
PL ([…], time 28 day): 127.2 mg/dL
RALB ([…], time 28 day): 3.4 g/dL
TBIL ([…], time 28 day): 0.2 mg/dL
TC ([…], time 28 day): 64.8 mg/dL
TG ([…], time 28 day): 87.4 mg/dL
TP ([…], time 28 day): 6.1 g/dL
gamma-GTP ([…], time 28 day): 1.2 IU/L
